Several values for one entry are separate records, joined by “and”; a condition that tells them apart may be missing. Equal values may be shown once. Toxic doses and inconclusive results are not listed. No stated cut-off is given here; in the data, active means T/C of 150% or more; inactive means T/C below 125%.
Tested on: L1210 leukemia ip in BDF1 mice, survival T/C
Experiment: NCI In Vivo Anticancer Drug Screen. Data for tumor model L1210 Leukemia (intraperitoneal) in B6D2F1 (BDF1) mice
Details: endpoint: mean survival time, higher = longer survival
How it was run: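 Antitumor effect is assessed in tumor-bearing animals. Survival in the compound arm is compared with a vehicle-dosed control arm and expressed as their quotient.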

[1] = dose: 100.0 mg/kg/injection, schedule: Q04DX003 (ip), vehicle: saline
[2] = dose: 100.0 mg/kg/injection, schedule: Q01DX001 (ip), vehicle: saline
[3] = dose: 200.0 mg/kg/injection, schedule: Q01DX001 (ip), vehicle: saline
[4] = dose: 400.0 mg/kg/injection, schedule: Q01DX001 (ip), vehicle: saline
[5] = dose: 100.0 mg/kg/injection, schedule: Q01DX009 (ip), vehicle: Klucel (hydroxypropylcellulose) (HPC)
[6] = dose: 100.0 mg/kg/injection, schedule: Q04DX003 (ip), vehicle: Klucel (hydroxypropylcellulose) (HPC)
[7] = dose: 200.0 mg/kg/injection, schedule: Q01DX009 (ip), vehicle: Klucel (hydroxypropylcellulose) (HPC)
[8] = dose: 200.0 mg/kg/injection, schedule: Q04DX003 (ip), vehicle: Klucel (hydroxypropylcellulose) (HPC)
[9] = dose: 400.0 mg/kg/injection, schedule: Q01DX009 (ip), vehicle: Klucel (hydroxypropylcellulose) (HPC)
[10] = dose: 400.0 mg/kg/injection, schedule: Q04DX003 (ip), vehicle: Klucel (hydroxypropylcellulose) (HPC)
[11] = dose: 100.0 mg/kg/injection, schedule: Q01DX009 (ip), vehicle: saline with Tween-80
[12] = dose: 200.0 mg/kg/injection, schedule: Q01DX009 (ip), vehicle: saline with Tween-80
[13] = dose: 400.0 mg/kg/injection, schedule: Q01DX001 (ip), vehicle: saline with Tween-80
[14] = dose: 100.0 mg/kg/injection, schedule: Q01DX001 (ip), vehicle: carboxymethylcellulose (CMC)
[15] = dose: 200.0 mg/kg/injection, schedule: Q01DX001 (ip), vehicle: carboxymethylcellulose (CMC)
[16] = dose: 400.0 mg/kg/injection, schedule: Q01DX001 (ip), vehicle: carboxymethylcellulose (CMC)
[17] = dose: 400.0 mg/kg/injection, schedule: Q01DX009 (ip), vehicle: saline with Tween-80

Measured: T/C

COc1cccc(/C=N/N=C(N)N)c1OC
inactive: dose: 62.5 mg/kg/injection, schedule: Q01DX Z (ip), vehicle: saline 101 % of control

C[P+]1(CCc2ccc(Cl)cc2)CC=CC1
inactive: dose: 25.0 mg/kg/injection, schedule: Q04DX003 (ip), vehicle: saline 93 % of control | dose: 50.0 mg/kg/injection, schedule: Q04DX003 (ip), vehicle: saline 103 % of control | [1] 96 % of control and 88 % of control

O=C(Oc1ccc(N=Cc2ccccc2)cc1)Oc1ccc(N=Cc2ccccc2)cc1
inactive: [2] 86 % of control | [3] 86 % of control | [4] 95 % of control

CC(C)c1oc(=O)cc2c1C(O)C1OC(=O)C3(C)C(O)C4OC4C2(C)C13 (stereo not drawn)
inactive: dose: 25.0 mg/kg/injection, schedule: Q01DX009 (ip), vehicle: Klucel (hydroxypropylcellulose) (HPC) 109 % of control | dose: 50.0 mg/kg/injection, schedule: Q01DX009 (ip), vehicle: Klucel (hydroxypropylcellulose) (HPC) 116 % of control | [5] 106 % of control and 88 % of control

N#CC(CC(=O)c1ccc2c(c1)OCO2)c1ccc2c(c1)OCO2 (stereo not drawn)
inactive: [5] 101 % of control | [6] 95 % of control | [7] 101 % of control | [8] 98 % of control | [9] 97 % of control | [10] 101 % of control

Cc1cc(C)c([N+](=O)[O-])c(C)c1C(=O)C(C)C
inactive: dose: 100.0 mg/kg/injection, schedule: Q01DX009 (ip), vehicle: other 105 % of control | [6] 96 % of control | dose: 200.0 mg/kg/injection, schedule: Q01DX009 (ip), vehicle: other 101 % of control | [8] 100 % of control | dose: 400.0 mg/kg/injection, schedule: Q01DX009 (ip), vehicle: other 95 % of control | [10] 94 % of control

CC(C)C(O)C1(C)CC1 (stereo not drawn)
inactive: [11] 96 % of control | [1] 106 % of control | [12] 95 % of control | dose: 200.0 mg/kg/injection, schedule: Q04DX003 (ip), vehicle: saline 107 % of control | dose: 400.0 mg/kg/injection, schedule: Q04DX003 (ip), vehicle: saline 111 % of control

CCc1ccc(NC(=O)Nc2ccc(Cl)c(Cl)c2)cc1
inactive: [5] 90 % of control | [7] 103 % of control | [9] 103 % of control

Cc1ccc(S(=O)(=O)N=S2CCCC2)cc1
inactive: [5] 97 % of control | [7] 102 % of control | [9] 102 % of control

CC(=O)Nc1nncs1
inactive: dose: 7.0 mg/kg/injection, schedule: Q03HX032 (ip), vehicle: saline with Tween-80 105 % of control | dose: 11.0 mg/kg/injection, schedule: Q03HX032 (ip), vehicle: saline with Tween-80 108 % of control | dose: 16.0 mg/kg/injection, schedule: Q03HX032 (ip), vehicle: saline with Tween-80 107 % of control | dose: 24.0 mg/kg/injection, schedule: Q03HX032 (ip), vehicle: saline with Tween-80 101 % of control | dose: 27.0 mg/kg/injection, schedule: Q01DX015 (ip), vehicle: saline with Tween-80 109 % of control | dose: 31.0 mg/kg/injection, schedule: Q01DX015 (ip), vehicle: carboxymethylcellulose (CMC) 96 % of control | dose: 36.0 mg/kg/injection, schedule: Q03HX032 (ip), vehicle: saline with Tween-80 108 % of control | dose: 40.0 mg/kg/injection, schedule: Q01DX015 (ip), vehicle: saline with Tween-80 95 % of control | dose: 50.0 mg/kg/injection, schedule: Q01DX001 (ip), vehicle: saline 112 % of control | dose: 60.0 mg/kg/injection, schedule: Q01DX015 (ip), vehicle: saline with Tween-80 97 % of control | dose: 62.0 mg/kg/injection, schedule: Q01DX015 (ip), vehicle: carboxymethylcellulose (CMC) 102 % of control | dose: 90.0 mg/kg/injection, schedule: Q01DX015 (ip), vehicle: saline with Tween-80 101 % of control | [2] 115 % of control | dose: 135.0 mg/kg/injection, schedule: Q01DX015 (ip), vehicle: saline with Tween-80 95 % of control | [3] 112 % of control | dose: 248.0 mg/kg/injection, schedule: Q01DX015 (ip), vehicle: carboxymethylcellulose (CMC) 98 % of control | dose: 270.0 mg/kg/injection, schedule: Q01DX001 (ip), vehicle: saline with Tween-80 101 % of control | [13] 109 % of control | [4] 106 % of control | dose: 600.0 mg/kg/injection, schedule: Q01DX001 (ip), vehicle: saline with Tween-80 112 % of control | dose: 900.0 mg/kg/injection, schedule: Q01DX001 (ip), vehicle: saline with Tween-80 109 % of control | dose: 1350.0 mg/kg/injection, schedule: Q01DX001 (ip), vehicle: saline with Tween-80 120 % of control

COC(=O)c1cc(C)cc(Oc2ccccc2N)c1C
inactive: [2] 88 % of control | [3] 102 % of control | [4] 93 % of control

CCN1c2ccccc2S(=O)c2cc([N+](=O)[O-])ccc21 (stereo not drawn)
inactive: dose: 50.0 mg/kg/injection, schedule: Q01DX001 (ip), vehicle: carboxymethylcellulose (CMC) 93 % of control | [14] 87 % of control | [15] 96 % of control | [16] 98 % of control

Cc1ncsc1CCO
inactive: dose: 100.0 mg/kg/injection, schedule: Q01DX001 (ip), vehicle: saline with Tween-80 98 % of control | dose: 200.0 mg/kg/injection, schedule: Q01DX001 (ip), vehicle: saline with Tween-80 102 % of control | [13] 94 % of control

Cc1cc(=O)c2cc(N(C)C)ccc2[nH]1
inactive: dose: 100.0 mg/kg/injection, schedule: Q01DX009 (ip), vehicle: water 100 % of control | dose: 100.0 mg/kg/injection, schedule: Q04DX003 (ip), vehicle: water 115 % of control | dose: 200.0 mg/kg/injection, schedule: Q01DX009 (ip), vehicle: water 105 % of control | dose: 200.0 mg/kg/injection, schedule: Q04DX003 (ip), vehicle: water 116 % of control | dose: 400.0 mg/kg/injection, schedule: Q01DX009 (ip), vehicle: water 104 % of control | dose: 400.0 mg/kg/injection, schedule: Q04DX003 (ip), vehicle: water 116 % of control

Cn1ncc2cncnc21
inactive: [2] 103 % of control | [3] 103 % of control | [4] 103 % of control

CCCCC(CCCC)(C(N)=O)C(=O)OCC
inactive: [5] 105 % of control | [7] 100 % of control | [9] 94 % of control

C=CCOC(=O)Nc1ccc(S(=O)(=O)N(C)C)cc1
inactive: [14] 97 % of control | [15] 93 % of control | [16] 97 % of control

c1ccc2c(c1)Oc1ccccc1[Te]2
inactive: dose: 100.0 mg/kg/injection, schedule: Q04DX002 (ip), vehicle: saline with Tween-80 100 % of control | dose: 200.0 mg/kg/injection, schedule: Q04DX002 (ip), vehicle: saline with Tween-80 103 % of control | dose: 400.0 mg/kg/injection, schedule: Q04DX002 (ip), vehicle: saline with Tween-80 88 % of control

CC1(C)CC(=O)N/C1=C\C1NC(=O)CC1(C)C (stereo not drawn)
inactive: [11] 96 % of control | [12] 104 % of control | [17] 102 % of control

O=C1CN=C(c2ccccn2)c2cc(Cl)ccc2N1CCO
inactive: [11] 106 % of control | dose: 100.0 mg/kg/injection, schedule: Q04DX003 (ip), vehicle: saline with Tween-80 96 % of control | [12] 101 % of control | dose: 200.0 mg/kg/injection, schedule: Q04DX003 (ip), vehicle: saline with Tween-80 112 % of control | [17] 98 % of control | dose: 400.0 mg/kg/injection, schedule: Q04DX003 (ip), vehicle: saline with Tween-80 91 % of control

CCCCCCCCCCCCCCCCS(=O)(=O)c1ccccc1NC(N)=O
inactive: [6] 97 % of control | [8] 98 % of control | [10] 95 % of control

COC(=O)N1C(c2ccccc2)(c2ccccc2)CS1(=O)=O
inactive: dose: 100.0 mg/kg/injection, schedule: Q04DX002 (ip), vehicle: Klucel (hydroxypropylcellulose) (HPC) 112 % of control | dose: 200.0 mg/kg/injection, schedule: Q04DX002 (ip), vehicle: Klucel (hydroxypropylcellulose) (HPC) 104 % of control | dose: 400.0 mg/kg/injection, schedule: Q04DX002 (ip), vehicle: Klucel (hydroxypropylcellulose) (HPC) 93 % of control
